From patent US20030166139A1 (priority 2001, published 2003)
Like-named read-outs stand apart in the source and are kept apart here.

What was measured:
[1] = tested on: EDIM rotavirus; set-up: species or system mice; conditions: mouse, in vivo
[2] = in vivo; cited from earlier work

## FSFPRVINSADGATTWYFNPVILRPNNVEV [compound 3]
[1]
  % Protection: 58%

## QEYAIPVGPVFPPGMNWTDLITNYSPSRED [compound 10]
[1]
  % Protection: 0%

## CAINAPANIQQFEHIVQLRRVLTTA [compound 1]
[1]
  % Protection: 0%

## MTPAVTALFPNAQPFEHHATVGLTLRIDSA [compound 7]
[1]
  % Protection: 0%

## TDLITNYSPSREDNLQRVFTVASIRSMLVK [compound 11]
[1]
  % Protection: 65%

## FNPVILRPNNVEVEFLLNGQVINTYQARF [compound 4]
[1]
  % Protection: 77%

## NGQVINTYQARFGTIVARNFDTIRLSFQLM [compound 5]
[1]
  % Protection: 0%

## HATVLTLRIDSAICESVLADASETMLANV [compound 8]
[1]
  % Protection: 51%

## PDAERFSFPRVINSADGA [compound 2]
[1]
  % Protection: 70%

## RLSFQLMRPPNMTP [Peptide #6-14]
[1]
  % Protection: 98%

## QS-21 [reference compound]
[2]
  safety in human clinical trials: safe
[1]
  % Protection from rotavirus shedding: 43%
[1]; po
  % Protection from rotavirus shedding: 71%

## VLADASETMLANVTSVRQEYAI [compound 9]
[1]
  % Protection: 0%

## RNFDTIRLSFQLMRPPNMTPAVTAL [Peptide #6]
[1]
  % Protection: 85%
